Patent US20260035367A1 (Celgene Corporation, priority 2021, published 2026)
Counter-ions that a name gives are not always drawn. Like-named read-outs stand apart in the source and are kept apart here.

Key:
[1] = target: T1, Recombinant human PKC-theta (His-tagged 362-706) (Homo sapiens, UniProt Q04759); assay: PKC-theta inhibition assay (HTRF KinEASE kit); type: biochemical; conditions: STK substrate 525 nM
T1 construct: Recombinant human PKC-theta (His-tagged 362-706); His
Description: PKC-theta and PKC-delta biochemical activities were measured using the PKC-theta HTRF KinEASEkit kit, according to manufacturer's instructions (Cisbio, catalogue number 61ST1PEJ). Briefly, the kinase buffer component of the kit was supplemented with 10 mM MgCl2, 1 mM DTT and 0.1% Tween 20. […] The streptavidin_XL665 and STK antibody-cryptate detection reagents were mixed according to the manufacturer's instructions. Test compounds were diluted in DMSO in a series of 10 semi-log step doses; 10 nL of each compound dose were dispensed in 384 well plates. […] The reaction was started by addition of the substrate and ATP and incubated at 25° C. for 30 minutes or 20 minutes for the PKC-theta and PKC-delta assays, respectively. The detection reagents were added, and the plate was incubated in the dark for 2 hours. […] The ratio of acceptor and donor emission signals was calculated for each well. Percent inhibition values were calculated from the HTRF ratios at different doses and fitted to a 4-parameter logistic curve to determine IC50 values (see Table 2).

[2] = target: T2, Recombinant human PKC-delta (His-tagged 345-676) (Homo sapiens, UniProt Q05655); assay: PKC-delta inhibition assay (HTRF KinEASE kit); type: biochemical; conditions: ratio, PKC-theta vs PKC-delta HTRF; for PKC-theta/PKC-delta selectivity (binned): binned A to G
T2 construct: PKC-delta (His-tagged 345-676); His

[3] = system: IL-2 secretion by human effector memory T cells (TEM); assay: Effector memory T cells IL-2 release assay (CD3/CD28 stimulation, HTRF IL-2 detection); type: cell-based; conditions: 24 h; for IC50: Homo sapiens, T-cell
Description: Test compound-mediated inhibition of NFκB signalling in T cells was assessed by quantification of the IL-2 secretion by human effector memory T cells (TEM) upon treatment and stimulation. Human TEM cells were isolated from buffy coats of healthy donors obtained from the French blood bank.
Finally, 10 doses of test compound, originally prepared in DMSO by serial semi-log step dilution, were also added to cells in triplicate wells. Final DMSO concentration in wells was 0.1% in a total volume of 100 μL complete medium. Plates were incubated for 24 h at 37° C. in 5% CO2 atmosphere. After incubation, cell suspensions were centrifuged at 400×g and culture supernatants were recovered and stored at −80° C. […] IL-2 levels were determined in cell supernatants using an HTRF human IL-2 detection kit (Cisbio, cat #62HIL02PEH).

[4] = ATP 6.5 μM, binned A to H, read-out: PKC-theta HTRF pIC50 (binned) (converted)
[5] = ATP 6.5 μM, read-out: PKC-theta HTRF pIC50 (converted)
[6] = binned A to G, read-out: PKC-theta IL2 pIC50 (binned) (converted)
[7] = read-out: PKC-theta IL2 pIC50 (converted)

T1 sequence (Q04759 362-706): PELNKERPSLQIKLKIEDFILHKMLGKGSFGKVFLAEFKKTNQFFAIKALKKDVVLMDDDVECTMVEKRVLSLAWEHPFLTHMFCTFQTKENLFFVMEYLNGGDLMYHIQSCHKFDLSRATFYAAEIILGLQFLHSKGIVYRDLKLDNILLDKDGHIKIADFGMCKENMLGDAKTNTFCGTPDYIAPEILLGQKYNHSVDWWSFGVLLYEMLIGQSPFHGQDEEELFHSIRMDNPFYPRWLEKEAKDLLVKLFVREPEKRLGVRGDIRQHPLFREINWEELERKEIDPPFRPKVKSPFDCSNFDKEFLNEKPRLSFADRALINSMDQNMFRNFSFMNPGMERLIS
T2 sequence (Q05655 345-676): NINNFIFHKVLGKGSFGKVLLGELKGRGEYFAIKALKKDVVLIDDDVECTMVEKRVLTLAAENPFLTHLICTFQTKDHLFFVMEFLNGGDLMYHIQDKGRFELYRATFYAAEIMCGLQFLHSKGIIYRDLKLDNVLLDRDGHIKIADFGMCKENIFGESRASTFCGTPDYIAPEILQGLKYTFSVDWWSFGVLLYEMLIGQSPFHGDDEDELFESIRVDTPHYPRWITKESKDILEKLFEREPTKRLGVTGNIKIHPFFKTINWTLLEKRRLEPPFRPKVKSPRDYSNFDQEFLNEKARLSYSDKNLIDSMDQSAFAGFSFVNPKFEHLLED

| SMILES | IC50 [1, 4] | IC50 [1, 5] | PKC-theta/PKC-delta selectivity [2] | PKC-theta/PKC-delta selectivity (binned) [2] | IC50 [3, 6] | IC50 [3, 7] | IC50 ([1]; PKC-theta HTRF pIC50 (binned), ATP 6.5 μM, binned A to H) | IC50 ([1]; PKC-theta HTRF pIC50, ATP 6.5 μM) | PKC-theta IL2 pIC50 [3] | PKC-theta IL2 pIC50 (binned) ([3]; binned A to G) |
| --- | --- | --- | --- | --- | --- | --- | --- | --- | --- | --- |
| CC[C@@H]1CNCCN1c1cc(C(F)(F)F)cc(-c2ccnc3c2[C@](C)(O)C(=O)N3)n1 (single isomer, unassigned) [Example 129] | 0.316 to 1 nM | 0.501 nM | 3 | F (a ratio of between 1 and 5) | 3.16 to 10 nM | 3.98 nM | – | – | – | – |
| CC1(C)CN(c2cc(C(F)(F)F)cc(-c3ccnc4c3[C@](C)(O)C(=O)N4)n2)CCN1 (single isomer, unassigned) [Example 134] | 3.16 to 10 nM | 7.94 nM | 10 | D (a ratio of between 10 and 20) | 100 to 316 nM | 100 nM | – | – | – | – |
| CC[C@]1(C)C(=O)Nc2nccc(-c3cc(Cl)cc(N4CCNC[C@H]4C)n3)c21 (single isomer, unassigned) [Example 165] | 3.16 to 10 nM | 6.31 nM | 12 | D (a ratio of between 10 and 20) | 31.6 to 100 nM | 63.1 nM | – | – | – | – |
| C[C@@H]1CN(c2cccc(-c3ccnc4c3C(C)(C)C(=O)N4)c2)CCN1 [Example 54] | 31.6 to 100 nM | 100 nM | 3 | F (a ratio of between 1 and 5) | > 1000 nM | 2000 nM | – | – | – | – |
| C[C@H]1CNCCN1c1cccc(-c2ccnc3[nH]c(=O)[nH]c23)c1 [Example 8, 7-[3-[(2S)-2-methylpiperazin-1-yl]phenyl]-1,3-dihydroimidazo[4,5-b]pyridin-2-one dihydrochloride] | – | – | 2 | F (a ratio of between 1 and 5) | > 1000 nM | 3980 nM | 316 to 1000 nM | 398 nM | – | – |
| C[C@H]1CNCCN1c1cccc(-c2ccnc3c2C(C)(C)C(=O)N3)c1 [Example 39] | 100 to 316 nM | 200 nM | 1 | F (a ratio of between 1 and 5) | > 1000 nM | 2510 nM | – | – | – | – |
| CC1(C)C(=O)Nc2nccc(-c3cc(F)cc(N4CCNCC4)c3)c21 [Example 29] | 31.6 to 100 nM | 31.6 nM | 1 | F (a ratio of between 1 and 5) | 316 to 1000 nM | 501 nM | – | – | – | – |
| CC1C(=O)Nc2nccc(-c3cccc(C(=O)N4CCNCC4)c3)c21 (stereo not drawn) [Example 27] | 316 to 1000 nM | 1000 nM | 1 | F (a ratio of between 1 and 5) | > 1000 nM | 10000 nM | – | – | – | – |
| CO[C@]1(C)C(=O)Nc2nccc(-c3cc(C(F)(F)F)cc(N4CCNC[C@H]4C)n3)c21 (single isomer, unassigned) [Example 176] | 10 to 31.6 nM | 12.6 nM | 20 | C (a ratio of between 20 and 30) | – | – | – | – | 6.9 | E (a measured pIC50 of between 6.5 and 7.0) |
| CN1CCN(c2cccc(-c3ccnc4[nH]c(=O)[nH]c34)c2)CC1 [Example 17] | > 1000 nM | 5010 nM | 2 | F (a ratio of between 1 and 5) | > 1000 nM | 10000 nM | – | – | – | – |
| CC1(C)C(=O)Nc2ncc(C#N)c(-c3cc(F)cc(N4CCNCC4)c3)c21 [Example 64] | 316 to 1000 nM | 501 nM | 2 | F (a ratio of between 1 and 5) | > 1000 nM | 5010 nM | – | – | – | – |
| CC1(C)C(=O)Nc2nccc(-c3cc(C(F)(F)F)nc(N4CCNCC4)n3)c21 [Example 98] | 10 to 31.6 nM | 20 nM | 15 | D (a ratio of between 10 and 20) | 100 to 316 nM | 316 nM | – | – | – | – |
| CCC1(C)C(=O)Nc2nccc(-c3cc(Cl)cc(N4CCN[C@@H](C)C4)n3)c21 (stereo partly drawn) [Example 147] | 1 to 3.16 nM | 2.51 nM | 10 | D (a ratio of between 10 and 20) | 31.6 to 100 nM | 31.6 nM | – | – | – | – |
| C[C@H]1CN(c2cc(C(F)(F)F)cc(-c3ccnc4c3[C@](C)(O)C(=O)N4)n2)CCN1 (single isomer, unassigned) [Example 95] | 1 to 3.16 nM | 2 nM | 15 | D (a ratio of between 10 and 20) | 31.6 to 100 nM | 31.6 nM | – | – | – | – |
| O=c1[nH]c2nccc(-c3cc(C(F)(F)F)cc(N4CCNCC4)n3)c2[nH]1 [Example 68] | 31.6 to 100 nM | 31.6 nM | 11 | D (a ratio of between 10 and 20) | 316 to 1000 nM | 501 nM | – | – | – | – |
| C[C@@H]1CNCCN1c1cc(Cl)cc(-c2c(F)cnc3c2C(C)(C)C(=O)N3)n1 [Example 155] | 3.16 to 10 nM | 3.98 nM | 17 | D (a ratio of between 10 and 20) | 31.6 to 100 nM | 50.1 nM | – | – | – | – |
| C[C@@]1(O)C(=O)Nc2nccc(-c3cc(Cl)cc(N4CCNC(CC(F)(F)F)C4)n3)c21 (single isomer, unassigned) [Example 122] | 3.16 to 10 nM | 3.98 nM | 16 | D (a ratio of between 10 and 20) | 100 to 316 nM | 251 nM | – | – | – | – |
| CC1(C)C(=O)Nc2nccc(-c3cc(C(F)(F)F)cc(N4CCNC(C(C)(C)O)C4)n3)c21 (stereo not drawn) [Example 124] | 3.16 to 10 nM | 3.98 nM | 16 | D (a ratio of between 10 and 20) | 100 to 316 nM | 158 nM | – | – | – | – |
| CC[C@H]1CN(c2cccc(-c3ccnc4c3C(C)(CC)C(=O)N4)n2)CCN1 (stereo partly drawn) [Example 148] | 10 to 31.6 nM | 20 nM | 3 | F (a ratio of between 1 and 5) | 100 to 316 nM | 158 nM | – | – | – | – |
| CC[C@]1(C)C(=O)Nc2nccc(-c3cc(C(F)(F)F)cc(N4CCN[C@@H](C)C4)n3)c21 (single isomer, unassigned) [Example 153] | 1 to 3.16 nM | 3.16 nM | 13 | D (a ratio of between 10 and 20) | 10 to 31.6 nM | 31.6 nM | – | – | – | – |
